One data set has as its target T1, ENT1 (Homo sapiens, UniProt Q99808).
T1 construct: endogenous in cells; host or cells: CD19-positive cells (B cells) in whole blood from healthy donors
T1 sequence (Q99808 1-456): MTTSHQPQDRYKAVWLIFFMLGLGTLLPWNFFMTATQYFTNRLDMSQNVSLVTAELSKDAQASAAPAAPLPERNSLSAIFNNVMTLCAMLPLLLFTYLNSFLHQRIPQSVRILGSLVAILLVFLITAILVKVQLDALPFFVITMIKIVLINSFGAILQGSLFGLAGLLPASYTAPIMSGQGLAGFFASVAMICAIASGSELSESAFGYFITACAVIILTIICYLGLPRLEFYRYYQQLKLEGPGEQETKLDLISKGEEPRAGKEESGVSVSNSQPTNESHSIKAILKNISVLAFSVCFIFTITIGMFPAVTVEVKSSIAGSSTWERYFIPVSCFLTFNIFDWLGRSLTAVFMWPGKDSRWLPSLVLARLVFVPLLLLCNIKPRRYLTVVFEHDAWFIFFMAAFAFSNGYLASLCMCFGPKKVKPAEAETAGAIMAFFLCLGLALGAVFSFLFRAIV
Description: ENT1 activity: intracellular uptake of 5-Ethynyl-Uridine (5EU) in whole blood, CD19 positive cells, flow cytometry. It counts as cell-based. The following applies: 5EU 60 min at 37° C. Here is the method: Example 20-ENT1 Activity of Crystalline Form 2 Compound 1 di(hydrogen sulfate) trihydrate compared to Compound 1 (free base)-Initial and after Six-Month Storage: (1) Initial time: Whole blood from 8 healthy donors was incubated with 5-Ethynyl-Uridine (5EU, CAS #: 69075-42-9, Jena Bioscience) for 60 min at 37° C., in the absence or presence of freshly suspended 1 μM Compound 1 (free base) or 1 μM Form 2 Compound 1 di(hydrogen sulfate) trihydrate. Intracellular uptake of 5EU through ENT1 transporters was assessed by standard flow cytometry and ENT1 activity was determined.
In FIG. 101, the data are expressed as % of ENT1 activity in untreated CD19 cells, arbitrary set at 100%, and are the means±SD of three independent experiments. Statistical analysis was performed using one-way analysis of variance (ANOVA) followed by Tukey's post hoc analysis with Prism 10.1.2 software (GraphPad Software). *: p<0.0001 vs. untreated B cells; ns: non-significant.
(2) Six months: Compound stability was evaluated on suspended solutions of Compound 1 (free base) or Form 2 Compound 1 di(hydrogen sulfate) trihydrate that were stored at −20° C. for 6 months. On the day of the experiment, whole blood from 3 healthy donors was incubated with 5-Ethynyl-Uridine (5EU, CAS #: 69075-42-9, Jena Bioscience) for 60 min at 37° C., in the absence or presence of either 1 μM Compound 1 (free base) or 1 μM Form 2 Compound 1 di(hydrogen sulfate) trihydrate of 6-month-old solutions. Intracellular uptake of 5EU through ENT1 transporters was assessed by standard flow cytometry and ENT1 activity was determined.
In FIG. 102, the data are expressed as % of ENT1 activity in untreated CD19 cells, arbitrary set at 100%, and are the means±SD. Statistical analysis was performed using two-way analysis of variance (ANOVA) with Prism 10.1.2 software (GraphPad Software). *: p<0.05 vs. untreated B cells; **: p<0.01 vs. untreated B cells; ns: non-significant.

Data set [1] can be described thus: thermodynamic solubility in 8 aqueous media (Example 19). The data set is classed as physicochemical. The following applies: for solubility in aqueous media: 24 hours at 37° C. How it is done: UPLC System—UPLC: ThermoFisher Vanquish, Detector 1: UV detector set at 266 nm
UPLC Conditions— • Auto sampler temp.: RT • Column: Agilent Eclipse Plus C18 HD (50×2.1 mm; 1.8 μm) • Column temp: 40° C. • Gradient: Mobile phase A: 10 mM ammonium acetate in water • Mobile phase B: Acetonitrile • Flow: 0.6 mL/min • Gradient:
• Concentration: ca. 1.0 mg/mL • Solvent: ACN/water 50:50 • Injection volume: 1 μl • Retention time: 2.9 min
Example 19-Solubility of Crystalline Form 2 Compound 1 di(hydrogen sulfate) trihydrate: The thermodynamic solubility of crystalline Form 2 Compound 1 di(hydrogen sulfate) trihydrate was determined in 8 aqueous media (0.1M HCl, Phthalate buffer pH 3, acetate buffer pH 4.2, phosphate buffer pH 7, phosphate buffer pH 7.4, alkaline borate buffer pH 9.0, purified water EP/USP and phosphate water pH 12). Buffer solutions were prepared according to the United States Pharmacopeia USP 43 with modified buffer strength. Suspensions were prepared by addition of a single aliquot of the aqueous medium to the crystalline Form 2 Compound 1 di(hydrogen sulfate) trihydrate. The pH was titrated to the targeted pH with 1M NaOH. After incubation for 24 hours at 37° C., the pH was measured, and the mother liquors were filtered and analyzed by UPLC to determine the concentration of the free base. The residual solids after the solubility determination were ambient- and vacuum dried and analyzed by HT-XRPD.

This note sets out measurements from patent publication US20240327415A1, “Multicomponent Complexes, Including Salts, Crystalline Forms, and Hydrates and Solvates of ENT1 Inhibitors” (iTeos Belgium SA, priority 2023, published 2024).

With `CCCN1CCNCCCNC(=O)c2cc(OC)c(OC)c(c2)OCCC[C@@H](OC(=O)c2cc(OC)c(OC)c(OC)c2)CC1`, the “decrease of ENT1 activity compared to untreated CD19 positive cells” value turned out to be 30.4% at ENT1 (1 μM of solutions stored at −20° C. for 6 months, whole blood from 3 healthy donors) and 43.9% at ENT1 (1 μM, freshly suspended, whole blood from 8 healthy donors). In addition, the “solubility compared with the free base” value in data set [1] is “more soluble than the free base”. Besides, the “solubility in aqueous media” value is listed as “very slightly soluble” in data set [1] (high pH (12.0)), “freely soluble” in data set [1] (low pH values (<3.0)), “soluble” in data set [1] (pH 4.2) and “slightly soluble” in data set [1] (pH 7.0).
